Entries after “also recorded” stand apart in the source; their conditions may differ.
Tests used:
[1] = tested on: GAL4-NR4A1; assay: GAL4-NR4A1/UAS-Luc transactivation (luciferase) in Panc1 cells; type: cell-based
Source text: (§1) FIG. 2 graphically illustrates luciferase activity in Panc1 cells transfected with GAL4-NR4A1 and GAL4-NR4A2 and UAS-Luc (GAL4-binding luciferase construct) treated with 4-, 3- and 2-hydroxy C-DIM analogs according to embodiments of the present disclosure;
Therefore, nine substituted 4-hydroxy analogs were synthesized to investigate their relative potencies as NR4A1 ligands and their half-lives since some of the substituents buttress the hydroxy group. Their effects on activation/inactivation of GAL4-NR4A1 and GAL4-NR4A2 in Panc1 cells were determined (see FIGS. 9 and 13).

[2] = tested on: GAL4-NR4A2; assay: GAL4-NR4A2/UAS-Luc transactivation (luciferase) in Panc1 cells; type: cell-based
Source text: as §1
FIG. 13 graphically illustrates luciferase activity in Panc1 cells transfected with GAL4-NR4A2 and UAS-Luc treated with 3-hydroxy C-DIM analogs, according to embodiments of the present disclosure;
FIG. 15 graphically illustrates luciferase activity in Panc1 cells transfected with GAL4-NR4A2 and UAS-Luc treated with 2-hydroxy C-DIM analogs, according to embodiments of the present disclosure;

[3] = tested on: β1-integrin and TXNDC5; assay: Western blot down-regulation of β1-integrin and TXNDC5 in Panc1 and SKBR3 cells; type: cell-based; conditions: FIG. 3
Source text: FIG. 3 includes images of western blots of Panc1 (pancreatic) and SKBR3 (breast) cancer cells treated with monohydroxy C-DIM compounds, according to embodiments of the present disclosure, showing down-regulation of expression of two NR4A1-dependent factors, β1-integrin and TXNDC5;
Compared to the 4-bromo standard NR4A2 ligand, the 3- and 2-hydroxy isomers had minimal NR4A2 activity. […] The results correlate with the transactivation data.

[4] = tested on: SERPINB5; assay: SERPINB5 induction (western blot) in SKBR3 breast cancer cells; type: cell-based; conditions: for potency order for inducing SERPINB5: western blot, FIGS. 3 and 5
Source text: FIG. 5 includes images of western blots of SKBR3 (breast) cancer cells treated with 4-, 3- and 2-hydroxy C-DIM compounds, according to embodiments of the present disclosure, showing up-regulation of expression of SERPINB5;
In this study, the DMSO (control) value was relatively high, resulting in low induction by the 4-hydroxy compound, whereas in other experiment induction was observed due to lower basal SERPINB5 levels.

[5] = tested on: human MDA-MB-231 breast cancer cells; assay: Orthotopic breast tumor growth in athymic nude mice; type: in vivo, mouse; conditions: for tumor growth: 10 mg/kg/day, athymic nude mice, orthotopic model; for ED50 values for tumor growth inhibition: expected from the 10 mg/kg/day result
Experimental: FIGS. 12A-12C graphically illustrate mammary tumor volume in an athymic nude mouse xenograft model using human MDA-MB-231 breast cancer cells treated with 4-hydroxy C-DIM analogs (10 mg/kg/day) (black) relative to a control (gray), according to embodiments of the present disclosure;

[6] = tested on: NR4A1, Rab4, AMPK; assay: Western blots of whole cell lysates of C2C12 muscle cells; type: cell-based, murine; conditions: western blot
Source text: FIGS. 25A-25D are images of western blots of whole cell lysates of C2C12 cells treated with C-DIM analogs, according to embodiments of the present disclosure;
(§2) There is also evidence that NR4A1 plays a role in enhancing glucose metabolism in muscle and this is consistent with potential anti-diabetic activity for NR4A1 ligands which has previously been reported for cytosporone-derived NR4A1 ligands in mouse models. Initial studies with DIM-C-pPhOH and second generation substituted analogs used C2C12 muscle cells as a model for investigating the anti-diabetic activity of these compounds. FIGS. 25A-25D illustrate that NR4A1 is expressed in C2C12 cells and treatment with C-DIM8 (DIM-C-pPhOH) or the second generation substituted C-DIM8 analogs 3,5-dibromo-(C-DIM8-3,5-Br2), 3-chloro-(C-DIM8-3-Cl), and 3-chloro-5-methoxy-(C-DIM8-3-Cl-5-OCH3) increased expression of NR4A1 in C2C12 cells.

[7] = tested on: G6Pase and PEPCK; assay: G6Pase and PEPCK in glucose-starved HepG2 cells; type: cell-based
[8] = tested on: RMS xenograft tumor; assay: RMS mouse xenograft tumor growth
[9] = Blood glucose in C57BL/6 mice on a high-fat diet; type: in vivo, mouse
[10] = biological target: T1, NR4A1 LBD (Homo sapiens, UniProt P22736); assay: Surface plasmon resonance binding, immobilized NR4A1 LBD; conditions: 5 or 10 μM ligand, 25° C., Biacore 3000, CM5 chip
T1 construct: Purified NR4A1 and NR4A2 LBD proteins were covalently immobilized
Experimental: (§3) Binding experiments were performed using the SPR method at 25° C. on Biacore 3000 system (GE Healthcare). Purified NR4A1 and NR4A2 LBD proteins were covalently immobilized on CM5 sensor chip (GE) using an amine coupling procedure. Alternatively, the more expensive his-tag-binding NTA sensor chip (GE) can be used to insure correct protein surface orientation. SPR response curves (sensorgrams) were generated after ligand injection using 5 or 10 μM DIM-C-pPhX analogs with X=Br (#2), X═OH (#8), X═CN (#10) and X═CO2Me (#14) (see FIG. 22).

[11] = biological target: T2, NR4A2 LBD (Homo sapiens, UniProt P43354); assay: Surface plasmon resonance binding, immobilized NR4A2 LBD; conditions: 5 or 10 μM ligand, 25° C., Biacore 3000, CM5 chip
T2 construct: Purified NR4A1 and NR4A2 LBD proteins were covalently immobilized
Experimental: as §3

[12] = biological target: NR4A1 (Homo sapiens, UniProt P22736); assay: NR4A1 binding affinity of the 4-hydroxy compound
[13] = tested on: TXNDC5 and PAX3-FOX01A; assay: Western blot of NR4A1-regulated gene products in Rh30 rhabdomyosarcoma cells; type: cell-based; conditions: 20 μM
Source text: FIG. […]
The effects of the 4-hydroxy reference compound and the nine analogs were compared with respect to down-regulation of two NR4A1-regulated gene products in Rh30 rhabdomyosarcoma cells, namely TXNDC5 and PAX3-FOX01A. […] The results also indicate that NR4A1-dependent transactivation assays appear to be less predictive than NR4A1-regulated gene products in determining differences in NR4A1 antagonist potencies.

[14] = tested on: SERPINB5; assay: SERPINB5 induction (western blot) in Panc1 cells; type: cell-based; conditions: 20 μM
[15] = tested on: NR4A1 and GLUT-4 gene expression; assay: NR4A1/GLUT-4 mRNA expression in C2C12 cells; type: cell-based, murine
Source text: FIGS. 26A-26D graphically illustrate relative NR4A1/glucose transporter 4 (GLUT-4) mRNA expression in C2C12 cells treated with C-DIM analogs, according to embodiments of the present disclosure;
as §2

[16] = tested on: C2C12 cells; assay: Glucose uptake in C2C12 cells; type: cell-based, murine; conditions: 15 and 20 μM
Source text: FIG. 27 graphically illustrates glucose uptake in C2C12 cells treated with C-DIM analogs, according to embodiments of the present disclosure;

[17] = cited from earlier work
[18] = tested on: tumor growth; conditions: cited from earlier work
[19] = tested on: cancer cell lines; conditions: cited from earlier work
[20] = tested on: PFKM, PGAM2, BPGM, PYGM; assay: mRNA expression of glycolytic genes in C2C12 cells; type: cell-based, murine
Source text: FIGS. 28A-28E graphically illustrate relative mRNA expression of glycolytic genes in C2C12 cells treated with DIM-C-pPhOH (A), DIM-C-pPhOH-3,5-Br2 (B), DIM-C-pPhOH-3-Cl (C), and DIM-C-pPhOH-3-Cl-5-OCH3 (D) for 24 hr, or cells were transfected with NR4A1 expression plasmid (E);
Overexpression of NR4A1 in C2C12 cells induces several genes involved in glycolysis including phosphofructokinase (PFKM), phosphoglycerate mutase 2 (PGAM2), bisphosphoglycerated mutase (BPGM), and glycogen phosphorylase M (PYGM).

T1 sequence (P22736 360-595 limits assumed, species assumed): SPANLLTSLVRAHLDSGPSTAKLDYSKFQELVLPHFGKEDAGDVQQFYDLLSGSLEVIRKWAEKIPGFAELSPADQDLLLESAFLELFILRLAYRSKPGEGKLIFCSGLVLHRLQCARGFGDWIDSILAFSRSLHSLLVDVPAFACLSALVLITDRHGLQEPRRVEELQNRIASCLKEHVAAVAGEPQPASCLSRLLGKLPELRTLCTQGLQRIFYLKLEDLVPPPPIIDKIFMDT
T2 sequence (P43354 360-595 limits assumed, species assumed): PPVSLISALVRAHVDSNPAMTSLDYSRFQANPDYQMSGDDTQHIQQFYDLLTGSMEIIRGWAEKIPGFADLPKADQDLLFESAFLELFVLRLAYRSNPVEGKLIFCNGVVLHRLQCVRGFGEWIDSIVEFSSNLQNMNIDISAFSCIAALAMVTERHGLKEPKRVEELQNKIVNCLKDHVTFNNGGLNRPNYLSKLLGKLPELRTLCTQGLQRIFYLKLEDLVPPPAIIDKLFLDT
NR4A1, sequence (P22736 whole entry, species assumed): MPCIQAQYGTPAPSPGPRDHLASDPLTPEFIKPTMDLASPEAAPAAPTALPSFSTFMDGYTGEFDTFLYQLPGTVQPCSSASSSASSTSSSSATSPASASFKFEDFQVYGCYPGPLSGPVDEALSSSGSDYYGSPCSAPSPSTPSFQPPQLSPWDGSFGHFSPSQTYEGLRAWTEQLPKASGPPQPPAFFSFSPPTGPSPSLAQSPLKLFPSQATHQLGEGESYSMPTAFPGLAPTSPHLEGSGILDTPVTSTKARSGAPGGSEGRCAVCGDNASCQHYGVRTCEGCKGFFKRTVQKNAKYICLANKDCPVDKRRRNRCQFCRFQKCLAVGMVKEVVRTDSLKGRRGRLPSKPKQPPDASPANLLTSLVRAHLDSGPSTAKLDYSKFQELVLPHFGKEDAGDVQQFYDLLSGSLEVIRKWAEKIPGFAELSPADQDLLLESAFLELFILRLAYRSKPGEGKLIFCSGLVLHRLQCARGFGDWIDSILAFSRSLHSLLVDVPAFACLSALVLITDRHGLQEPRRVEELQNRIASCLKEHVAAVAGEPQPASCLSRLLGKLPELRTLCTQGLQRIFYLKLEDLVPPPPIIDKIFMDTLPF

Oc1cccc(C(c2c[nH]c3ccccc23)c2c[nH]c3ccccc23)c1Br [2 bromo (3-hydroxy analog)]
potency in NR4A1-dependent transactivation vs unsubstituted 3- and 4-hydroxy DIM standards ([1]; substituted 3-hydroxy DIM analogs, FIG. 7): more potent

Oc1ccccc1C(c1c[nH]c2ccccc12)c1c[nH]c2ccccc12 [2-hydroxy compound]
NR4A2 activity (GAL4-NR4A2) compared to the 4-bromo reference [2]: minimal
potency in down-regulation of β1-integrin and TXNDC5 vs the 4-hydroxy compound [3]: more potent
potency order for inducing SERPINB5 [4]: 2-OH/3-OH>4-OH

Oc1ccc(C(c2c[nH]c3ccccc23)c2c[nH]c3ccccc23)cc1F [3-fluoro-4-hydroxy analog]
potency as inhibitors of NR4A1-dependent transactivation relative to the 4-hydroxy reference compound ([1]; tested at 7.5 μM and 15 μM): exception

Oc1cccc(C(c2c[nH]c3ccccc23)c2c[nH]c3ccccc23)c1 [3-hydroxy compound]
NR4A2 activity (GAL4-NR4A2) compared to the 4-bromo reference [2]: minimal
potency in down-regulation of β1-integrin and TXNDC5 vs the 4-hydroxy compound [3]: more potent
potency order for inducing SERPINB5 [4]: 2-OH/3-OH>4-OH

Oc1c(Br)cc(C(c2c[nH]c3ccccc23)c2c[nH]c3ccccc23)cc1Br [C-DIM8-3,5-Br2]
tumor growth [5]: inhibited tumor growth
ED50 values for tumor growth inhibition [5]: low mg/kg/day or high μg/kg/day range
expression of NR4A1 [6]: increased
G6Pase and PEPCK mRNA levels [7]: inhibit
RMS tumor growth ([8]; 0.25 mg/kg/d): tumor growth inhibition
RMS tumor growth ([8]; doses of 10.0, 7.5, 5.0 and 2.5 mg/kg/day): complete tumor growth inhibition
toxicity ([8]; in vivo study, RMS xenograft): not observed

COc1cc(C(c2c[nH]c3ccccc23)c2c[nH]c3ccccc23)cc(Cl)c1O [C-DIM8-3-Cl-5-OCH3]
tumor growth [5]: inhibited tumor growth
ED50 values for tumor growth inhibition [5]: low mg/kg/day or high μg/kg/day range
expression of NR4A1 [6]: increased
serum glucose levels in a glucose tolerance test compared to control animals ([9]; 10 mg/kg/d): decreased
serum glucose ([9]; 25 mg/kg/d, current study): decreased
serum insulin levels ([9]; 25 mg/kg/d, current study): increased
blood glucose levels ([9]; HFD C57BL/6 mice, 10 mg/kg/d in corn oil, every second day, oral gavage): significant decrease

Oc1ccc(C(c2c[nH]c3ccccc23)c2c[nH]c3ccccc23)cc1Cl [C-DIM8-3-Cl]
tumor growth [5]: inhibited tumor growth
ED50 values for tumor growth inhibition [5]: low mg/kg/day or high μg/kg/day range
expression of NR4A1 [6]: increased

Brc1ccc(C(c2c[nH]c3ccccc23)c2c[nH]c3ccccc23)cc1 [DIM-C-pPhBr, 1,1-bis(3′-indolyl)-1-(p-bromophenyl)methane]
SPR binding to NR4A1 [10]: sticky interactions
SPR binding to NR4A2 [11]: sticky interactions

Oc1ccc(C(c2c[nH]c3ccccc23)c2c[nH]c3ccccc23)cc1 [DIM-C-pPhOH]
binding to NR4A1 [12]: high affinity
SPR binding to NR4A1 [10]: bound with high affinity
concentration at which significant inhibition of GAL4-NR4A1 transactivation was observed ([1]; not at 15 μM (steep dose response curve)): 22.5 µM
decreased expression of TXNDC5 and PAX3-FOX01A [13]: 50-60%
induction of SERPINB5 [14]: induced SERPINB5
induction of SERPINB5 ([4]; SKBR3 cells, 20 μM, DMSO control value relatively high): minimally induced
potency order for inducing SERPINB5 [4]: 2-OH/3-OH>4-OH
expression of NR4A1 [6]: increased
NR4A1 and GLUT-4 gene expression [15]: induce
concentration of maximal induction of NR4A1 and GLUT-4 gene expression [15]: 20 µM
glucose uptake [16]: significantly induced
G6Pase and PEPCK mRNA levels [7]: inhibit
in vivo half-life [17]: short; also recorded: very short
serum half-life ([17]; in vivo): relatively short
partial tumor growth inhibition ([18]; 30-40 mg/kg/day, previous studies): 40-50%
doses at which tumor growth is (partially) inhibited ([18]; mouse, in vivo): 30 to 40 mg/kg/day
doses at which tumor growth is only partially inhibited ([18]; mouse, in vivo): 40 to 50 mg/kg/day
receptor-independent activities such as mitochondrial toxicity ([19]; cancer cell lines): minimal
concentrations that block the pro-oncogenic pathways ([19]; cell culture): 10 to 20 µM

CN(C)C(=N)N=C(N)N [metformin]
NR4A1 and GLUT-4 gene expression [15]: induce
expression of glycolytic genes PFKM, PGAM2, BPGM, PYGM [20]: significantly induced

Reference: patent US12264150B2, “NR4A1 ligands, pharmaceutical compositions, and related methods of use” (The Texas A&M University System, priority 2017, dated 2025)
